Experimental data from paper PMC4240342 (Bioconjugate Chemistry, 2014).

Tested on: human osteosarcoma Saos-2 cells
Assay: Cytotoxicity, CCK-8 bioassay
Type: cell-based
Settings: read-out: IC50, cytotoxicity, 72 h incubation, CCK-8, concentrations as hydrazone-bound DOX content, mean ± SEM of three experiments

SMILES: COc1cccc2c1C(=O)c1c(O)c3c(c(O)c1C2=O)C[C@@](O)(C(=O)CO)C[C@@H]3O[C@H]1C[C@H](N)[C@H](O)[C@H](C)O1 [Free DOX, Doxorubicin]
- IC50: 77 ± 9 nM
